In patent US20160151335A1, “METHODS OF MODULATING CFTR ACTIVITY” (PROTEOSTASIS THERAPEUTICS, INC., priority 2013, published 2016):

Molecular target: T1, ΔF508-CFTR (Homo sapiens, UniProt P13569, DEL508-508)
T1 construct: Primary lung epithelial cells (hBEs) homozygous for the Cystic Fibrosis-causing ΔF508 mutation; endogenous in cells; host or cells: primary lung (bronchial) epithelial cells (hBE) homozygous for ΔF508, differentiated at an air-liquid interface
Assay: hBE equivalent current (Ieq) assay, AUC of equivalent chloride current
Type: cell-based
Conditions: compound at 10 uM, 24 h, primary hBE cells homozygous ΔF508; AUC increase relative to VX-809 at 1 uM
Description: Primary lung epithelial cells homozygous for the Cystic Fibrosis-causing ΔF508 mutation were differentiated for a minimum of 4 weeks in an air-liquid interface on Costar 24 well HTS filter plates prior to the equivalent current (Ieq) measurements. Cells were apically mucus-washed for 30 minutes 24 h prior to treatment with compounds. The basolateral media was removed and replaced with media containing the compound of interest diluted to its final concentration from DMSO stocks. Treated cells were incubated at 37° C. and 5% CO2 for 24 hours. At the end of the treatment period, the media was changed to the Ieq experimental solution for 30 minutes before the experiment and plates are maintained in a CO2-free incubator during this period. The plates containing the cells were then placed in pre-warmed heating blocks at 36° C.±0.5 for 15 minutes before measurements are taken. The transepithelial voltage (VT) and conductance (GT) were measured using a custom 24 channel current clamp (TECC-24) with 24 well electrode manifold. The Ieq assay measurements were made following additions with standardized time periods: • 1. The baseline VT and GT values were measured for approximately 20 minutes. • 2. Benzamil was added to block ENaC for 15 minutes. • 3. Forskolin plus VX-770 were added to maximally activate ΔF508-CFTR for 27 minutes. • 4. Bumetanide was added to inhibit the NaK2Cl cotransporter and shut-off secretion of chloride. The activity data captured was the area under the curve (AUC) for the traces of the equivalent chloride current. The AUC was collected from the time of the forskolin/VX-770 addition until the inhibition by bumetanide addition. Correction in response to compound treatment was scored as the increase in the AUC for compound-treated samples over that of vehicle-treated samples. (++ indicates activity ≧25% run at 10 uM of VX-809 at 1 uM, + indicates activity 10 to ≦25% run at 10 uM of VX-809 at 1 uM.

T1 sequence (P13569 with tags, fused parts or gaps DEL508-508): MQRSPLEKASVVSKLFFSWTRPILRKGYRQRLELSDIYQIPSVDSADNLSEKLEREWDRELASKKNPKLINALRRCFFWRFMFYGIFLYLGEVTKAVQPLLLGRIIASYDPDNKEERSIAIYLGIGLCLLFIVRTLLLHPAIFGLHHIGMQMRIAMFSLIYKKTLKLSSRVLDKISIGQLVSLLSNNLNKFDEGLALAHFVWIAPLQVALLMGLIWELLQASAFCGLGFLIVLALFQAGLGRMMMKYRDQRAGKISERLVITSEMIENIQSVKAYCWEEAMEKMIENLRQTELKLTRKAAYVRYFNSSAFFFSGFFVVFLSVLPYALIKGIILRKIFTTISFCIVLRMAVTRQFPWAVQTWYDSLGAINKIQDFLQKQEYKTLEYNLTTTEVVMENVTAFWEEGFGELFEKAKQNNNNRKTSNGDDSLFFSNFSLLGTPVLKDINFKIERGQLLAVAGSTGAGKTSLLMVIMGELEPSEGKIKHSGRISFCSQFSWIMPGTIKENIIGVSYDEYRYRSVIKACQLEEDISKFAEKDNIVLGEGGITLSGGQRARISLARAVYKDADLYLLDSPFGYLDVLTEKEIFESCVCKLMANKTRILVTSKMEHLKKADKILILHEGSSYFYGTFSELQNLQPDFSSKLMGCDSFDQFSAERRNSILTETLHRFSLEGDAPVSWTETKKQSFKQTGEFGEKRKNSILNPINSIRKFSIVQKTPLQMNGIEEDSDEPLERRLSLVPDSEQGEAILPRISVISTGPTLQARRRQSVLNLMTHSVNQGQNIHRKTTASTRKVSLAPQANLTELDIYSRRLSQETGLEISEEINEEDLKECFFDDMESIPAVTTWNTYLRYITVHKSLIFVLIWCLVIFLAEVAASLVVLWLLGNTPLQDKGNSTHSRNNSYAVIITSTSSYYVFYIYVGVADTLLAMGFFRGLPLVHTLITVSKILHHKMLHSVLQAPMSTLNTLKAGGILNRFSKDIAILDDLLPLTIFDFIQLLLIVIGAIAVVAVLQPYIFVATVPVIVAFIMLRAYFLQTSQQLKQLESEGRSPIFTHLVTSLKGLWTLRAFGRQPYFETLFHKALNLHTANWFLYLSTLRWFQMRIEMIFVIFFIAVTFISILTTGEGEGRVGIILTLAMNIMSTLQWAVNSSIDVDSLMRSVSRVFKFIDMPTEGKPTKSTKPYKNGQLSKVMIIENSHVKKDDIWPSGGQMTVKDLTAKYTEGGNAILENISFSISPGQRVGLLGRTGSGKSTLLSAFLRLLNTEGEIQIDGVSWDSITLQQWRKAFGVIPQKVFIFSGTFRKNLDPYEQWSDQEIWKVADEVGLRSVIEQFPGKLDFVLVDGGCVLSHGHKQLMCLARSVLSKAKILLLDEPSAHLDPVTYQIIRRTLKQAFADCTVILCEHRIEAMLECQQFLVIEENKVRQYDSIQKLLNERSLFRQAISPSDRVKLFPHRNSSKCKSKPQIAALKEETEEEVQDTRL

Row | Structure (SMILES) | Ieq hBE Activity
1 | O=C(NCC1CCCO1)c1cc(-c2ccccc2)on1 (stereo not shown) [Compound 1] | ++ (++ indicates activity ≧25% run at 10 uM of VX-809 at 1 uM)
2 | O=C(NC[C@@H]1CCCO1)c1cc(-c2ccccc2)on1 [Compound 2, (S)-5-phenyl-N-((tetrahydrofuran-2-yl)methyl)isoxazole-3-carboxamide] | ++ (++ indicates activity ≧25% run at 10 uM of VX-809 at 1 uM)
3 | O=C(NCCN1CCOCC1)c1cc(-c2ccccc2)on1 [Compound 4] | ++ (++ indicates activity ≧25% run at 10 uM of VX-809 at 1 uM)
4 | O=C(NCCN1CCOC1=O)c1cc(-c2ccccc2)on1 [Compound 5] | ++ (++ indicates activity ≧25% run at 10 uM of VX-809 at 1 uM)
5 | O=C(NCCc1cnccn1)c1cc(-c2ccccc2)on1 [Compound 6] | ++ (++ indicates activity ≧25% run at 10 uM of VX-809 at 1 uM)
6 | O=C(NCC(O)c1ccncc1)c1cc(-c2ccccc2)on1 (stereo not shown) [Compound 7] | ++ (++ indicates activity ≧25% run at 10 uM of VX-809 at 1 uM)
7 | Cc1nnc(CCNC(=O)c2cc(-c3ccccc3)on2)s1 [Compound 8] | ++ (++ indicates activity ≧25% run at 10 uM of VX-809 at 1 uM)
8 | CCn1nc(C)c(CCNC(=O)c2cc(-c3ccccc3)on2)c1C [Compound 10] | + (+ indicates activity 10 to ≦25% run at 10 uM of VX-809 at 1 uM)
9 | COCc1noc(CCNC(=O)c2cc(-c3ccccc3)on2)n1 [Compound 11] | ++ (++ indicates activity ≧25% run at 10 uM of VX-809 at 1 uM)
10 | O=C(NCCc1noc(C2CCCC2)n1)c1cc(-c2ccccc2)on1 [Compound 12] | ++ (++ indicates activity ≧25% run at 10 uM of VX-809 at 1 uM)
11 | O=C(NCCCN1CCOCC1)c1cc(-c2ccccc2)on1 [Compound 13] | ++ (++ indicates activity ≧25% run at 10 uM of VX-809 at 1 uM)
12 | O=C(NCCCN1CCOCC1)c1cc(-c2cccs2)on1 [Compound 14] | ++ (++ indicates activity ≧25% run at 10 uM of VX-809 at 1 uM)
13 | O=C(NCCCn1ccnc1)c1cc(-c2ccc(F)cc2)on1 [Compound 15] | + (+ indicates activity 10 to ≦25% run at 10 uM of VX-809 at 1 uM)
14 | Cn1c(CCCNC(=O)c2cc(-c3ccccc3)on2)nc2ccccc21 [Compound 17] | + (+ indicates activity 10 to ≦25% run at 10 uM of VX-809 at 1 uM)
15 | COCCNC(=O)c1cc(-c2ccc(F)cc2)on1 [Compound 19] | ++ (++ indicates activity ≧25% run at 10 uM of VX-809 at 1 uM)
16 | O=C(NCc1ccco1)c1cc(-c2ccccc2)on1 [Compound 20] | + (+ indicates activity 10 to ≦25% run at 10 uM of VX-809 at 1 uM)
17 | Cn1ccc(CNC(=O)c2cc(-c3ccccc3)on2)n1 [Compound 27] | + (+ indicates activity 10 to ≦25% run at 10 uM of VX-809 at 1 uM)
18 | CCCn1cc(CNC(=O)c2cc(-c3ccccc3)on2)cn1 [Compound 30] | + (+ indicates activity 10 to ≦25% run at 10 uM of VX-809 at 1 uM)
19 | COCc1noc(CNC(=O)c2cc(-c3ccccc3)on2)n1 [Compound 35] | ++ (++ indicates activity ≧25% run at 10 uM of VX-809 at 1 uM)
20 | CSCc1noc(CNC(=O)c2cc(-c3ccccc3)on2)n1 [Compound 36] | ++ (++ indicates activity ≧25% run at 10 uM of VX-809 at 1 uM)
21 | O=C(NCc1ccccn1)c1cc(-c2ccccc2)on1 [Compound 41] | + (+ indicates activity 10 to ≦25% run at 10 uM of VX-809 at 1 uM)
22 | O=C(NCC1CCCC1)c1cc(-c2ccccc2)on1 [Compound 51] | + (+ indicates activity 10 to ≦25% run at 10 uM of VX-809 at 1 uM)
23 | O=C(NCC1CCOC1)c1cc(-c2ccccc2)on1 (stereo not shown) [Compound 52] | ++ (++ indicates activity ≧25% run at 10 uM of VX-809 at 1 uM)
24 | O=C(NCCC1CCOCC1)c1cc(-c2ccccc2)on1 [Compound 90] | ++ (++ indicates activity ≧25% run at 10 uM of VX-809 at 1 uM)
25 | CN1CCN(CCNC(=O)c2cc(-c3ccccc3)on2)CC1 [Compound 92] | ++ (++ indicates activity ≧25% run at 10 uM of VX-809 at 1 uM)
26 | O=C(NCCN1C(=O)CSC1=O)c1cc(-c2ccccc2)on1 [Compound 94] | + (+ indicates activity 10 to ≦25% run at 10 uM of VX-809 at 1 uM)
27 | O=C(NCCc1ccccc1)c1cc(-c2ccccc2)on1 [Compound 95] | ++ (++ indicates activity ≧25% run at 10 uM of VX-809 at 1 uM)
28 | NS(=O)(=O)c1ccc(CCNC(=O)c2cc(-c3ccccc3)on2)cc1 [Compound 97] | ++ (++ indicates activity ≧25% run at 10 uM of VX-809 at 1 uM)

Row | Structure (SMILES) | Ieq hBE Activity
29 | O=C(NCCc1ccccn1)c1cc(-c2ccccc2)on1 [Compound 100] | + (+ indicates activity 10 to ≦25% run at 10 uM of VX-809 at 1 uM)
30 | O=C(NCCc1cccnc1)c1cc(-c2ccccc2)on1 [Compound 101] | ++ (++ indicates activity ≧25% run at 10 uM of VX-809 at 1 uM)
31 | O=C(NCCc1ccncc1)c1cc(-c2ccccc2)on1 [Compound 102] | ++ (++ indicates activity ≧25% run at 10 uM of VX-809 at 1 uM)
32 | O=C(NCCc1csc(-c2ncccn2)n1)c1cc(-c2ccccc2)on1 [Compound 110] | ++ (++ indicates activity ≧25% run at 10 uM of VX-809 at 1 uM)
33 | Cc1nn2cc(CCNC(=O)c3cc(-c4ccccc4)on3)nc2s1 [Compound 114] | ++ (++ indicates activity ≧25% run at 10 uM of VX-809 at 1 uM)
34 | O=C(NCCn1nccn1)c1cc(-c2ccccc2)on1 [Compound 115] | ++ (++ indicates activity ≧25% run at 10 uM of VX-809 at 1 uM)
35 | O=C(NCCc1c[nH]c2ccccc12)c1cc(-c2ccccc2)on1 [Compound 120] | ++ (++ indicates activity ≧25% run at 10 uM of VX-809 at 1 uM)
36 | O=C(NCCCN1CCOCC1)c1cc(-c2ccc(F)cc2)on1 [Compound 128] | + (+ indicates activity 10 to ≦25% run at 10 uM of VX-809 at 1 uM)
37 | O=C(NCCCN1CCOCC1)c1cc(-c2ccccc2F)on1 [Compound 135] | + (+ indicates activity 10 to ≦25% run at 10 uM of VX-809 at 1 uM)
38 | COCCNC(=O)c1cc(-c2ccccc2F)on1 [Compound 150] | + (+ indicates activity 10 to ≦25% run at 10 uM of VX-809 at 1 uM)
39 | COCCNC(=O)c1cc(-c2ccccc2OC)on1 [Compound 153] | ++ (++ indicates activity ≧25% run at 10 uM of VX-809 at 1 uM)
40 | COCCNC(=O)c1cc(-c2ccc(C(F)(F)F)cc2)on1 [Compound 161] | + (+ indicates activity 10 to ≦25% run at 10 uM of VX-809 at 1 uM)
41 | O=C(NCC(O)COCc1ccccc1)c1cc(-c2ccccc2)on1 (stereo not shown) [Compound 172] | + (+ indicates activity 10 to ≦25% run at 10 uM of VX-809 at 1 uM)
42 | O=C(NCCCn1cccc1)c1cc(-c2ccccc2)on1 [Compound 186] | ++ (++ indicates activity ≧25% run at 10 uM of VX-809 at 1 uM)
43 | Cn1nccc1CCCNC(=O)c1cc(-c2ccccc2)on1 [Compound 188] | ++ (++ indicates activity ≧25% run at 10 uM of VX-809 at 1 uM)
44 | O=C(NCCCn1cccn1)c1cc(-c2ccccc2)on1 [Compound 189] | ++ (++ indicates activity ≧25% run at 10 uM of VX-809 at 1 uM)
45 | Cc1nc(CCCNC(=O)c2cc(-c3ccccc3)on2)sc1C [Compound 191] | ++ (++ indicates activity ≧25% run at 10 uM of VX-809 at 1 uM)
46 | O=C(NCCCn1cncn1)c1cc(-c2ccccc2)on1 [Compound 192] | ++ (++ indicates activity ≧25% run at 10 uM of VX-809 at 1 uM)
47 | O=C(NCCCc1ccoc1)c1cc(-c2ccccc2)on1 [Compound 194] | + (+ indicates activity 10 to ≦25% run at 10 uM of VX-809 at 1 uM)
48 | Cn1cncc1CCCNC(=O)c1cc(-c2ccccc2)on1 [Compound 195] | ++ (++ indicates activity ≧25% run at 10 uM of VX-809 at 1 uM)
49 | Cn1cnc(CCCNC(=O)c2cc(-c3ccccc3)on2)c1 [Compound 197] | ++ (++ indicates activity ≧25% run at 10 uM of VX-809 at 1 uM)
50 | Cn1ccc(CCCNC(=O)c2cc(-c3ccccc3)on2)c1 [Compound 198] | ++ (++ indicates activity ≧25% run at 10 uM of VX-809 at 1 uM)
51 | O=C(NCCCn1nccc1C1CC1)c1cc(-c2ccccc2)on1 [Compound 200] | ++ (++ indicates activity ≧25% run at 10 uM of VX-809 at 1 uM)
52 | Nc1nnc(CCCNC(=O)c2cc(-c3ccccc3)on2)s1 [Compound 201] | ++ (++ indicates activity ≧25% run at 10 uM of VX-809 at 1 uM)
53 | O=C(NCCCn1ncc2ccccc21)c1cc(-c2ccccc2)on1 [Compound 204] | ++ (++ indicates activity ≧25% run at 10 uM of VX-809 at 1 uM)
54 | O=C(NCCCn1nnc2ccccc21)c1cc(-c2ccccc2)on1 [Compound 205] | ++ (++ indicates activity ≧25% run at 10 uM of VX-809 at 1 uM)
55 | O=C(NCCCc1cccnc1)c1cc(-c2ccccc2)on1 [Compound 207] | ++ (++ indicates activity ≧25% run at 10 uM of VX-809 at 1 uM)
